Test results published in PMC7321161, “The Intriguing Effects of Substituents in the N-Phenethyl Moiety of Norhydromorphone: A Bifunctional Opioid from a Set of “Tail Wags Dog” Experiments” (Molecules, 2020).
Several values for one entry are separate records, joined by “and”; a condition that tells them apart may be missing. Equal values may be shown once.

How the values were obtained:
κ-opioid receptor (KOR) = biological target: T1, κ-opioid receptor (KOR) (Rattus norvegicus, UniProt P34975); test: Opioid receptor binding, κ sites ([3H]U69,593), rat brain homogenate; conditions: for Ki: KOR Binding (Ki), whole rat brain excluding cerebellum, [3H]U69,593, Ki ± SEM; for KOR Binding, exploratory binding assay: radioligand displacement at 100 nM
T1 construct: Frozen whole rat brains excluding cerebellum were thawed on ice; from tissue; host or cells: whole rat brain excluding cerebellum, membrane homogenate
T1 sequence (P34975 whole entry): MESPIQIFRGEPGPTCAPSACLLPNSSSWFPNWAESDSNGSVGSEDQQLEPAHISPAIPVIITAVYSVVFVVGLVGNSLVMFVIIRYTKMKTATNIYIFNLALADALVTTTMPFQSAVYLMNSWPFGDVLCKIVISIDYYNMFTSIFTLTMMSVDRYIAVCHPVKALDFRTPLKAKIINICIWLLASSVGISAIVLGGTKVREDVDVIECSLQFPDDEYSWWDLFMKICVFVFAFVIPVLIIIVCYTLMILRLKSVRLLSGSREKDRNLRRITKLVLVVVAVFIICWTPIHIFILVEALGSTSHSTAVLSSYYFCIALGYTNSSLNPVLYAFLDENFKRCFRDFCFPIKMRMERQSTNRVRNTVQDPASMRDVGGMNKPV

δ-opioid receptor (DOR) = biological target: T2, δ-opioid receptor (DOR) (Rattus norvegicus, UniProt P33533); test: Opioid receptor binding, δ sites ([3H]DADLE), rat brain homogenate
T2 construct: Frozen whole rat brains excluding cerebellum were thawed on ice; from tissue; host or cells: whole rat brain excluding cerebellum, membrane homogenate
T2 sequence (P33533 whole entry): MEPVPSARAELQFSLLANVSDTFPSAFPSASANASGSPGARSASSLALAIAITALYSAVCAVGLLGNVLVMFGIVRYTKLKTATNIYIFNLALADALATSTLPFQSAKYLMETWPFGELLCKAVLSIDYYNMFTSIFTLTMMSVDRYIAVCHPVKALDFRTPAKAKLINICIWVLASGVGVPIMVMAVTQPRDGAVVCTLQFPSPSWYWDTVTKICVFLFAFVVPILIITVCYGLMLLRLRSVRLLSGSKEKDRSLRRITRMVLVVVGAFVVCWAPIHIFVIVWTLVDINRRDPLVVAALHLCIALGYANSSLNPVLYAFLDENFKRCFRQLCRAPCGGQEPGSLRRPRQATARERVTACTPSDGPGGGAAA

[1] = biological target: T3, human κ-opioid receptor (OPRK1) (Homo sapiens, UniProt P41145); test: cell-based; conditions: for Emax: CHO-K1, read-out: KOR cAMP % Efficacy; for EC50: KOR cAMP Agonist Potency ± SEM
T3 construct: host or cells: HitHunter CHO-K1 cells
T3 sequence (P41145 whole entry): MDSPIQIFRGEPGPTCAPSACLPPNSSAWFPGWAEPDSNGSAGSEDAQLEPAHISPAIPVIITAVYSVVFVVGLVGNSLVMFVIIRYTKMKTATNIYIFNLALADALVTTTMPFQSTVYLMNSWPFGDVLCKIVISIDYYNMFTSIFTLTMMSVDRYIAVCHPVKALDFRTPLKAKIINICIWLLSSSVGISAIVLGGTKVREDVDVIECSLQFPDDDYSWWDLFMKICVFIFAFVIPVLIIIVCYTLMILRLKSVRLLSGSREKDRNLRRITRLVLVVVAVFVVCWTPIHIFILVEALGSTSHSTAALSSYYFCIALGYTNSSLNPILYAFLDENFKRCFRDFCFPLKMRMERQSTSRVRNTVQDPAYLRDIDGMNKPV

rat MOR = biological target: T4, rat MOR (Rattus norvegicus, UniProt P33535); test: Stimulation of [35S]GTPγS binding, C6 glioma cell membranes expressing MOR; type: biochemical; conditions: for MOR % Stimulation, [35S]GTPγS: compared to standard maximal DAMGO; for MOR activity type in the [35S]GTPγS assay: antagonist activity assumed from high MOR affinity and lack of stimulation; for MOR EC50, [35S]GTPγS: C6 cells expressing MOR, mean ± SEM, DNS = no stimulation
T4 construct: expressed in transfected cells; host or cells: C6 rat glioma cells, stably transfected; membranes
T4 sequence (P33535 whole entry): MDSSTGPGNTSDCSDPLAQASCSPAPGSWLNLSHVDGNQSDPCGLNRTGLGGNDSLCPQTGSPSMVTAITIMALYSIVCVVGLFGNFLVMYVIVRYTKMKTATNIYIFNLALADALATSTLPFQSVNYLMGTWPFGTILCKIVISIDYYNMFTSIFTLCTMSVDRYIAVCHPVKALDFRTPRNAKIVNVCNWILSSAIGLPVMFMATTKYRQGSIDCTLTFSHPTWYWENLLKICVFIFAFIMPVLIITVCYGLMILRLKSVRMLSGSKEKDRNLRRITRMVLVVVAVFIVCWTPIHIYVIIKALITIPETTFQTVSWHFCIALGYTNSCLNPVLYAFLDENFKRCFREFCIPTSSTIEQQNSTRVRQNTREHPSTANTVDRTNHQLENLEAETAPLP

μ-opioid receptor (MOR) = biological target: T5, μ-opioid receptor (MOR) (Rattus norvegicus, UniProt P33535); test: Opioid receptor binding, μ sites ([3H]DAMGO), rat brain homogenate
T5 construct: Frozen whole rat brains excluding cerebellum were thawed on ice; from tissue; host or cells: whole rat brain excluding cerebellum, membrane homogenate
T5 sequence (P33535 whole entry): as above

[2] = biological target: T6, human μ-opioid receptor β-arrestin-2 (Homo sapiens, UniProt P35372); test: cell-based; conditions: for Emax: read-out: MOR Mediated β-arrestin Recruitment (% Control, Emax DAMGO)
T6 construct: enzyme fragment for EFC (β-galactosidase ProLink fragment, by own knowledge of the PathHunter system); host or cells: PathHunter CHO cells
T6 sequence (P35372 whole entry, the tested form may be a part): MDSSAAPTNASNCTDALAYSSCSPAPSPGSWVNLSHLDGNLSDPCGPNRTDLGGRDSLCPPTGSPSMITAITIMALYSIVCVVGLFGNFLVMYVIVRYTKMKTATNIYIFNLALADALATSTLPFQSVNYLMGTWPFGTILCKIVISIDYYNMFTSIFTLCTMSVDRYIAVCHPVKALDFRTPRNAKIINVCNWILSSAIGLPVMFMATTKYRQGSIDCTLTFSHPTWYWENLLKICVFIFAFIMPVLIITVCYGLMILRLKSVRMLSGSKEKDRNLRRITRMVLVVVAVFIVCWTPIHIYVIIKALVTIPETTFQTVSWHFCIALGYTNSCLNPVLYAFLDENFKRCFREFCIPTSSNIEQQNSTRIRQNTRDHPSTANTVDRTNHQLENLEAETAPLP

[3] = biological target: T7, human μ-opioid receptor (OPRM1) (Homo sapiens, UniProt P35372); test: cell-based; conditions: for EC50: MOR cAMP Agonist Potency ± SEM; for Emax: OPRM1, read-out: MOR cAMP % Efficacy
T7 construct: host or cells: HitHunter CHO-K1 cells
T7 sequence (P35372 whole entry): as the sequence (P35372 whole entry, the tested form may be a part) above

[4] = biological target: T8, human δ-receptor (OPRMD1) (Homo sapiens, UniProt P41143); test: cell-based; type: cell-based; conditions: for Emax: CHO-K1, read-out: DOR cAMP % Efficacy; for EC50: DOR cAMP Agonist Potency ± SEM
T8 construct: host or cells: HitHunter CHO-K1 cells
T8 sequence (P41143 whole entry): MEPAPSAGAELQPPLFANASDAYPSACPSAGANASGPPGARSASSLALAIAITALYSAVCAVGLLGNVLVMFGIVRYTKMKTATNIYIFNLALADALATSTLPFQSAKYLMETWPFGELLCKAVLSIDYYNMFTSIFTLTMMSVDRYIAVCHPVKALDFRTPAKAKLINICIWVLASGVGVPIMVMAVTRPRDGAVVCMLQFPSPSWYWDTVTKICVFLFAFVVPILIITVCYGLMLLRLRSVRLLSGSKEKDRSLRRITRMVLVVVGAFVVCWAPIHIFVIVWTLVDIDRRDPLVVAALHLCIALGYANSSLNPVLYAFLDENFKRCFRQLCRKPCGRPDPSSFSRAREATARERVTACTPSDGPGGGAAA

rat DOR = biological target: T9, rat DOR (Rattus norvegicus, UniProt P33533); test: Stimulation of [35S]GTPγS binding, C6 glioma cell membranes expressing DOR; type: biochemical; conditions: for EC50: DOR EC50, [35S]GTPγS, C6 cells expressing DOR, mean ± SEM; for DOR % Stimulation, [35S]GTPγS: compared to standard maximal DPDPE
T9 construct: expressed in transfected cells; host or cells: C6 rat glioma cells, stably transfected; membranes
T9 sequence (P33533 whole entry): as the sequence (P33533 whole entry) above

human KOR = biological target: T10, human KOR (Homo sapiens, UniProt P41145); test: Stimulation of [35S]GTPγS binding, CHO cell membranes expressing KOR; type: biochemical; conditions: for KOR % Stimulation, [35S]GTPγS: compared to standard maximal U69593
T10 construct: expressed in transfected cells; membranes
T10 sequence (P41145 whole entry): as the sequence (P41145 whole entry) above

SMILES | Ki (κ-opioid receptor (KOR)) | Ki (δ-opioid receptor (DOR)) | Emax [1] | EC50 [1] | EC50 (rat MOR) | MOR % Stimulation, [35S]GTPγS (rat MOR) | Ki (μ-opioid receptor (MOR)) | Bias Factor [2] | EC50 [2] | Emax [2] | EC50 [3] | Emax [3] | Emax [4] | EC50 [4] | EC50 (rat DOR) | DOR % Stimulation, [35S]GTPγS (rat DOR) | MOR activity type in the [35S]GTPγS assay (rat MOR) | further results
N#CCN1CC[C@]23c4c5ccc(O)c4O[C@H]2C(=O)CCC3C1C5 (stereo partly drawn) [Compound 1a, 2-((7aR,12bS)-9-Hydroxy-7-oxo-1,2,4,4a,5,6,7,7a-octahydro-3H-4,12-methanobenzofuro[3,2-e]isoquinolin-3-yl)acetonitrile] | 90.3 ± 6.6 nM | 141 ± 2.8 nM | 99.3% | 109 nM | 425 ± 133 nM | 47% and 47.1 ± 3.3% | 4.51 ± 0.27 nM | 2.18 | 424 nM | 33.4% | 4.16 nM | 102% | 77% | 254 nM | – | – | – | –
O=C1CCC2C3Cc4ccc(O)c5c4C2(CCN3CCc2ccccc2)C1O5 (centres unmarked) [Compound S11, N-Phenethylnorhydromorphone] | – | – | 80.6% | 23 nM and 22.7 nM | – | – | – | 0.47 | 1.71 nM | 61.9% | 0.04 nM | 102% | 95.1% | 1.54 nM | – | – | – | EC50 δ/μ ratio in the cAMP assay [4]: 38.5 and 39
O=C1CCC2C3Cc4ccc(O)c5c4[C@@]2(CCN3CCc2c(Cl)cccc2Cl)[C@H]1O5 (stereo partly drawn) [Compound 2k, (7aR,12bS)-3-(2,6-Dichlorophenethyl)-9-hydroxy-2,3,4,4a,5,6-hexahydro-1H-4,12-methanobenzofuro[3,2-e]isoquinolin-7(7aH)-one] | – | – | 74% | 1880 nM | – | – | – | 1.04 | 13.1 nM | 24.6% | 0.37 nM | 101% | 95.8% | 21.9 nM | – | – | – | –
C[C@@H](NC(=O)[C@@H](N)Cc1ccc(O)cc1)C(=O)NCC(=O)N(C)[C@@H](Cc1ccccc1)C(=O)NCCO [DAMGO, [D-Ala^2, N-MePhe^4, Gly-ol]-enkephalin, reference compound] | – | – | – | – | – | – | – | – | – | – | – | 102% | – | – | – | – | – | –
O=C1CCC2C3Cc4ccc(O)c5c4[C@@]2(CCN3CCc2cccc(F)c2)[C@H]1O5 (stereo partly drawn) [Compound 2f, (7aR,12bS)-9-Hydroxy-3-(3-fluorophenethyl)-2,3,4,4a,5,6-hexahydro-1H-4,12-methanobenzofuro[3,2-e]-isoquinolin-7(7aH)-one] | 30.2 ± 2.3 nM | 4.48 ± 0.43 nM | 58% | 56.5 nM | 2.4 ± 0.3 nM | 56.8 ± 7.5% | 0.49 ± 0.07 nM | 1.94 | 6.2 nM | 40.3% | 0.06 nM | 102% | 96.9% | 1.64 nM | 54.1 ± 4.7 nM | 86.7 ± 8.0% | – | KOR EC50, [35S]GTPγS (human KOR; CHO cells expressing KOR, mean ± SEM, DNS = no stimulation): DNS
Cc1ccc(CCN2CC[C@]34c5c6ccc(O)c5O[C@H]3C(=O)CCC4C2C6)cc1 (stereo partly drawn) [Compound 2c, (7aR,12bS)-9-Hydroxy-3-(4-methylphenethyl)-2,3,4,4a,5,6-hexahydro-1H-4,12-methanobenzofuro[3,2-e]-isoquinolin-7(7aH)-one] | 44 ± 3.8 nM | 6.34 ± 0.65 nM | 99.4% | 8.7 nM and 8.71 nM | 1.9 ± 0.7 nM | 55.6 ± 2.1% | 0.86 ± 0.12 nM | 1.12 | 5.6 nM | 46.5% | 0.08 nM | 102% | 95% | 1 nM | 23.1 ± 6.9 nM | 95% and 95.4 ± 3.8% | potent partial MOR agonist | EC50 (human KOR): 38.1 ± 10.6 nM; KOR % Stimulation, [35S]GTPγS (human KOR): 31.4 ± 4.2%
N#CCCCN1CCC23c4c5ccc(O)c4OC2C(=O)CCC3C1C5 (centres unmarked) [Compound 1b] | 2.71 ± 0.22 nM | 72.2 ± 1.2 nM | – | – | – | – | 4.25 ± 0.29 nM | – | – | – | – | – | – | – | – | – | MOR antagonist | MOR EC50, [35S]GTPγS (rat MOR): DNS; EC50 (human KOR): 24.3 ± 5 nM; KOR % Stimulation, [35S]GTPγS (human KOR): 89.6 ± 0.9%
O=C(O)C(=O)O.O=C1CCC2[C@H]3Cc4ccc(O)c5c4[C@@]2(CCN3CCc2ccc(Br)cc2)[C@H]1O5 (stereo partly drawn) [Compound 2j, (4R,7aR,12bS)-3-(4-Bromophenethyl)-9-hydroxy-2,3,4,4a,5,6-hexahydro-1H-4,12-methanobenzofuro[3,2-e]-isoquinolin-7(7aH)-one oxalate] | – | – | 99% | 20 nM and 20.1 nM | – | – | – | 0.43 | 4.9 nM | 53% | 0.15 nM | 103% | 96% | 0.97 nM | – | – | – | EC50 δ/μ ratio in the cAMP assay [4]: 6.5
O=C1CCC2C3Cc4ccc(O)c5c4[C@@]2(CCN3CCc2ccc(C(F)(F)F)cc2)[C@H]1O5 (stereo partly drawn) [Compound 2h, (7aR,12bS)-9-Hydroxy-3-(4-(trifluoromethyl)phenethyl)-2,3,4,4a,5,6-hexahydro-1H-4,12-methanobenzofuro-[3,2-e]isoquinolin-7(7aH)-one] | – | 16.4 ± 0.4 nM | 95.7% | 98.2 nM | 3.4 ± 1.2 nM | 72.2 ± 5.5% | 2.7 ± 0.17 nM | 0.56 | 10.3 nM | 62.4% | 0.21 nM | 102% | 94.3% | 2.41 nM | 36 nM and 35.7 nM | 82.3 ± 2.3% | – | KOR Binding, exploratory binding assay (κ-opioid receptor (KOR)): NT (NT = not tested—inactive (<50% activity at 100 nM concentration in exploratory binding assays (displaced less than half of radioligand))
O=C1CCC2C3Cc4ccc(O)c5c4[C@@]2(CCN3CCc2ccc([N+](=O)[O-])cc2)[C@H]1O5 (stereo partly drawn) [Compound 2a, (7aR,12bS)-9-Hydroxy-3-(4-nitrophenethyl)-2,3,4,4a,5,6-hexahydro-1H-4,12-methanobenzofuro[3,2-e]-isoquinolin-7(7aH)-one] | 56 ± 8.2 nM | 6.07 ± 0.86 nM | 63% | 74.6 nM | 1.9 ± 0.5 nM | 26.6 ± 1.4% | 0.52 ± 0.01 nM | 4.51 | 6.38 nM | 26.2% | 0.05 nM | 102% | 96% | 0.53 nM | 227 ± 53 nM | 64.3 ± 3.3% | potent MOR agonist | –
O=C1CCC2C3Cc4ccc(O)c5c4C2(CCN3CCc2cccc([N+](=O)[O-])c2)C1O5 [Compound 2b, (7aR,12bS)-9-Hydroxy-3-(3-nitrophenethyl)-2,3,4,4a,5,6-hexahydro-1H-4,12-methanobenzofuro[3,2-e]-0isoquinolin-7(7aH)-one] | 65.4 ± 7.7 nM | 92.5 ± 7.3 nM | – | > 10000 nM | – | – | 5.88 ± 0.38 nM | 3.38 | 116 nM | 6% | 5.2 nM and 5.22 nM | 102% | 95.3% | 46.7 nM | – | – | MOR antagonist | MOR EC50, [35S]GTPγS (rat MOR): DNS
O=C1CCC2C3Cc4ccc(O)c5c4[C@@]2(CCN3CC2Cc3ccccc3C2)[C@H]1O5 (stereo partly drawn) [Compound 1d, (7aR,12bS)-3-((2,3-Dihydro-1H-inden-2-yl)methyl)-9-hydroxy-2,3,4,4a,5,6-hexahydro-1H-4,12-methano-benzofuro[3,2-e]isoquinolin-7(7aH)-one] | – | 844 ± 107 nM | – | > 10000 nM | – | – | 40.1 ± 5.9 nM | 2.53 | 130 nM | 1.9% | 18.3 nM | 95.2% | 94.4% | 596 nM | – | – | – | KOR Binding, exploratory binding assay (κ-opioid receptor (KOR)): NT (NT = not tested—inactive (<50% activity at 100 nM concentration in exploratory binding assays (displaced less than half of radioligand))
O=C1CCC2C3Cc4ccc(O)c5c4[C@@]2(CCN3CC=Cc2ccccc2)[C@H]1O5 (stereo partly drawn) [Compound 1c, (7aR,12bS)-3-Cinnamyl-9-hydroxy-2,3,4,4a,5,6-hexahydro-1H-4,12-methanobenzofuro[3,2-e]isoquinolin-7(7aH)-one] | – | – | – | > 10000 nM | – | – | 90.5 ± 11 nM | 1.35 | 584 nM | 4.1% | 76.7 nM | 103% | 96.5% | 1700 nM | – | – | – | KOR Binding, exploratory binding assay (κ-opioid receptor (KOR)): NT (NT = not tested—inactive (<50% activity at 100 nM concentration in exploratory binding assays (displaced less than half of radioligand)); DOR Binding, exploratory binding assay (δ-opioid receptor (DOR); radioligand displacement at 100 nM): NT (NT = not tested—inactive (<50% activity at 100 nM concentration in exploratory binding assays (displaced less than half of radioligand))
